Results published in ChEMBL document CHEMBL6078670, “Discovery of a potent and selective TRPC3 antagonist with neuroprotective effects” (Bioorg Med Chem, 2025).
In brackets after ≈: the same amount, converted by molar mass. Activity calls are given as the source filed them. The calls are words filed in the database; no cut-off is given here.

Tests used:
[1] = molecular target: T1, Short transient receptor potential channel 3 (Homo sapiens) (UniProt Q13507); experiment: Antagonist activity at human TRPC3 expressed in HEK293 cells assessed as inhibition of carbachol-induced activity at 10 uM measured after 48 hrs by Whole-cell patch clamp electrophysiology relative to control; assay type: cell-based
T1 sequence (whole entry): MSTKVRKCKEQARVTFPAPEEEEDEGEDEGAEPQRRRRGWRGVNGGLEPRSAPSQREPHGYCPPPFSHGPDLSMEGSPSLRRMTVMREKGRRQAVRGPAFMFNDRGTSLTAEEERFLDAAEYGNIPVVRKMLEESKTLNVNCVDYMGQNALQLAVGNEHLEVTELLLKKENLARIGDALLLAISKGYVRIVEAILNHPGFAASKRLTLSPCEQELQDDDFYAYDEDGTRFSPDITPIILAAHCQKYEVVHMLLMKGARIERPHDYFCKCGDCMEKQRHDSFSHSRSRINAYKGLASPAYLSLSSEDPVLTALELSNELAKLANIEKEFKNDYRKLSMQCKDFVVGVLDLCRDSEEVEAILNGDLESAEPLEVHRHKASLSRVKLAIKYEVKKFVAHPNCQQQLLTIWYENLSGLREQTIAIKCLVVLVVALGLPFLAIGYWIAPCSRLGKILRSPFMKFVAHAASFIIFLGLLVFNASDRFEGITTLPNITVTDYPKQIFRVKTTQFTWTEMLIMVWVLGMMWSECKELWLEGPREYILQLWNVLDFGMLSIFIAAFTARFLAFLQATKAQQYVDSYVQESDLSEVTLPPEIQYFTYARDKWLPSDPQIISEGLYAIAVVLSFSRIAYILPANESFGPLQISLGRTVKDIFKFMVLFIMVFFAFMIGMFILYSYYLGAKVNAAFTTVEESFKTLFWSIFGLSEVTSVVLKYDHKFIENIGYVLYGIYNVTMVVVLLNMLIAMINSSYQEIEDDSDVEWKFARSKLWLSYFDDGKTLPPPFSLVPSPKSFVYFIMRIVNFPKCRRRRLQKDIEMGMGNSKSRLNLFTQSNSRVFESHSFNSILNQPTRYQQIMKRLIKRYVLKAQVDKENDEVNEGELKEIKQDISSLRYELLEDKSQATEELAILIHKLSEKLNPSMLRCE

[2] = molecular target: T2, Short transient receptor potential channel 7 (Homo sapiens) (UniProt Q9HCX4); experiment: Antagonist activity at human TRPC7 expressed in HEK293 cells assessed as inhibition of carbachol-induced activity at 10 uM measured after 48 hrs by Whole-cell patch clamp electrophysiology; assay type: cell-based
T2 sequence (whole entry): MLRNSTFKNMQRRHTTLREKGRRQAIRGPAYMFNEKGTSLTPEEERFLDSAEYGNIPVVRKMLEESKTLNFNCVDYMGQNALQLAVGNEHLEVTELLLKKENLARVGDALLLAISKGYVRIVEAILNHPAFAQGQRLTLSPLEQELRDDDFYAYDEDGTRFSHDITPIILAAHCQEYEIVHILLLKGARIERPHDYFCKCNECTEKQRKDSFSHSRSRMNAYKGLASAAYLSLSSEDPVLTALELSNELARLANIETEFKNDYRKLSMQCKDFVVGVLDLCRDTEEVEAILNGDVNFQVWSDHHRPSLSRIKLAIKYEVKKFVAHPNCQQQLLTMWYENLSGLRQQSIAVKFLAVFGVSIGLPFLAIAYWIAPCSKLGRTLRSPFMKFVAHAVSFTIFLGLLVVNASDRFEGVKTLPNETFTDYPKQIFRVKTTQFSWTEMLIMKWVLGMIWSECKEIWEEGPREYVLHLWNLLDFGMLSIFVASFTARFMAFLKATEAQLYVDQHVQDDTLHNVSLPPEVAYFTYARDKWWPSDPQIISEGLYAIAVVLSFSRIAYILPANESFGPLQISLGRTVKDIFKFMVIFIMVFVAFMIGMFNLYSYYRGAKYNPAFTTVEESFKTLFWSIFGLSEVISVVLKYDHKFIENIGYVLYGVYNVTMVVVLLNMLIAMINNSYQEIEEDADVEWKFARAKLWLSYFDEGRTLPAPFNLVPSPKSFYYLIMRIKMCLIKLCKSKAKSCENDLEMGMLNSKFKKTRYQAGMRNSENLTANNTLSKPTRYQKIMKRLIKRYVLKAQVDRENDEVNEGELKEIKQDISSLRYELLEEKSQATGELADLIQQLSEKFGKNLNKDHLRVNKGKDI

[3] = molecular target: Short transient receptor potential channel 1 (Rattus norvegicus) (UniProt Q9QX01); experiment: Antagonist activity at rat TRPC1 expressed in HEK293 cells assessed as inhibition of carbachol-induced activity at 10 uM measured after 48 hrs by Whole-cell patch clamp electrophysiology; assay type: cell-based
[4] = molecular target: Short transient receptor potential channel 1 (Mus musculus) (UniProt Q61056); experiment: Antagonist activity at mouse TRPC1 expressed in HEK293 cells assessed as inhibition of carbachol-induced activity at 10 uM measured after 48 hrs by Whole-cell patch clamp electrophysiology; assay type: cell-based
[5] = molecular target: T3, Short transient receptor potential channel 6 (Homo sapiens) (UniProt Q9Y210); experiment: Antagonist activity at human TRPC6 expressed in HEK293 cells assessed as inhibition of carbachol-induced activity at 10 uM measured after 48 hrs by Whole-cell patch clamp electrophysiology; assay type: cell-based
T3 sequence (whole entry): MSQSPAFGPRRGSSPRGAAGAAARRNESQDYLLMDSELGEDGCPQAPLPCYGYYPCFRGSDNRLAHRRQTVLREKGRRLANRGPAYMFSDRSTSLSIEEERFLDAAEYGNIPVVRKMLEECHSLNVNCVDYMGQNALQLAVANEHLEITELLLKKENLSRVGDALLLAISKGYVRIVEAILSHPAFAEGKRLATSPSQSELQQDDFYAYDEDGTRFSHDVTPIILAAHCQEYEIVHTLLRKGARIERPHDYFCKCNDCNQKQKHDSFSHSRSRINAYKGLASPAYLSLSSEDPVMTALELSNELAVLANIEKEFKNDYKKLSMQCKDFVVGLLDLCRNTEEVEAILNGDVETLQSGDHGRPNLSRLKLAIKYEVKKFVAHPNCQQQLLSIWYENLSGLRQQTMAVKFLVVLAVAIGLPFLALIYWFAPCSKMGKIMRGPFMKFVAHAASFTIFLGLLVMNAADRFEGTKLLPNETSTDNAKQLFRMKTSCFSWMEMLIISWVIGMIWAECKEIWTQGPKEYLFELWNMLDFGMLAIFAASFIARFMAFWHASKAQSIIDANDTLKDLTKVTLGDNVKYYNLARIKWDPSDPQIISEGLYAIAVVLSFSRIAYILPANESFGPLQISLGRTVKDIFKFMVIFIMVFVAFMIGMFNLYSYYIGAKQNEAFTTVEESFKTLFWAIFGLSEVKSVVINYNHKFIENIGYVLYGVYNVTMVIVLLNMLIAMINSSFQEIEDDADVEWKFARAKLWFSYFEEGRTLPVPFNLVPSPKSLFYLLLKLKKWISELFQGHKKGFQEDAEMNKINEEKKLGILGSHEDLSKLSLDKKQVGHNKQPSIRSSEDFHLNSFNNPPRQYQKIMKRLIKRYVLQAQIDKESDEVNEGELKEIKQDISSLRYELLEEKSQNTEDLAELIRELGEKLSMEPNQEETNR

[6] = molecular target: Transient receptor potential cation channel subfamily M member 8 (Rattus norvegicus) (UniProt Q8R455); experiment: Antagonist activity at rat TRPM8 expressed in HEK293 cells assessed as inhibition of carbachol-induced activity at 10 uM measured after 48 hrs by Whole-cell patch clamp electrophysiology; assay type: cell-based
[7] = tested on: Hippocampal neurone; experiment: Rescuing beta-amyloid induced neuronal cell damage in Sprague-Dawley rat primary hippocampal cell culture (composed of 60% primary neuron, 20% microglia and 20% astrocyte) assessed as decrease in soluble oligomeric Abeta-containing media (7PA2 cells) induced synaptic toxicity at 250 nM; assay type: functional, cell-based
[8] = Kinetic solubility of the compound in ph 7.4 PBS buffer measured after 24 hrs shaken by HPLC and UPLC system; assay type: physicochemical; conditions: read-out: Kinetic_solubility
[9] = Cytotoxicity against Sprague-Dawley rat primary hippocampal cells at 100 nM; assay type: toxicity, cell-based; conditions: hippocampal neurone, 0.1 µM

Transient receptor potential cation channel subfamily M member 8 (Rattus norvegicus), sequence (Q8R455 whole entry, looked up): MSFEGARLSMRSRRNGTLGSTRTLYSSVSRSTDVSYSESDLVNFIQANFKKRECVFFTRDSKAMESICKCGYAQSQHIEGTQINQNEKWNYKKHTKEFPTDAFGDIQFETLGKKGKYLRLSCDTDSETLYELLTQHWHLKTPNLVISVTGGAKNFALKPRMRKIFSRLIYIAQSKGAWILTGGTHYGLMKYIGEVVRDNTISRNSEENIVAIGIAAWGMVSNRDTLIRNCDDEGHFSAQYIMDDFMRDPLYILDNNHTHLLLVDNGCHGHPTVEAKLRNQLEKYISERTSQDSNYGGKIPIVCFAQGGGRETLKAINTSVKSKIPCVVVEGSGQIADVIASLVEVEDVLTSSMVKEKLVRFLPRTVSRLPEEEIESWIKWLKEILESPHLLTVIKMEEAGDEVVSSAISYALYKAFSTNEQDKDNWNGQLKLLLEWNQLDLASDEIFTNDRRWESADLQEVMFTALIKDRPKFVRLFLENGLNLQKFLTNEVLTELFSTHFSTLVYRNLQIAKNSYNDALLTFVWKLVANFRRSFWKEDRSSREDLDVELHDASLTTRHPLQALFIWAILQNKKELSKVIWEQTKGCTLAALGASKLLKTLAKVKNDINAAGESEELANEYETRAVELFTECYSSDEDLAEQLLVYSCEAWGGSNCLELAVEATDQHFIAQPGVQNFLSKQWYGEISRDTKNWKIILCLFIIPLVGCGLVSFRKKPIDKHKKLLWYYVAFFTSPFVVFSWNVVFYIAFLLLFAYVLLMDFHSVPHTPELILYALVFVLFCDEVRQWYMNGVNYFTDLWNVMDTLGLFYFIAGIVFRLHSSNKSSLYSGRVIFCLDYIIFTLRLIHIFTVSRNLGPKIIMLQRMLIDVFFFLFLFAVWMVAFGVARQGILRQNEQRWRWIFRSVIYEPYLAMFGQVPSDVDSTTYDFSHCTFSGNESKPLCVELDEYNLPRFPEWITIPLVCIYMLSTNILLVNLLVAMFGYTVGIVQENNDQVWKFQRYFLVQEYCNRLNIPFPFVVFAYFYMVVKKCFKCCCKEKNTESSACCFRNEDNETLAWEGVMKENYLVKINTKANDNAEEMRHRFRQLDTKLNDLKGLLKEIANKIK
Short transient receptor potential channel 1 (Rattus norvegicus), sequence (Q9QX01 whole entry): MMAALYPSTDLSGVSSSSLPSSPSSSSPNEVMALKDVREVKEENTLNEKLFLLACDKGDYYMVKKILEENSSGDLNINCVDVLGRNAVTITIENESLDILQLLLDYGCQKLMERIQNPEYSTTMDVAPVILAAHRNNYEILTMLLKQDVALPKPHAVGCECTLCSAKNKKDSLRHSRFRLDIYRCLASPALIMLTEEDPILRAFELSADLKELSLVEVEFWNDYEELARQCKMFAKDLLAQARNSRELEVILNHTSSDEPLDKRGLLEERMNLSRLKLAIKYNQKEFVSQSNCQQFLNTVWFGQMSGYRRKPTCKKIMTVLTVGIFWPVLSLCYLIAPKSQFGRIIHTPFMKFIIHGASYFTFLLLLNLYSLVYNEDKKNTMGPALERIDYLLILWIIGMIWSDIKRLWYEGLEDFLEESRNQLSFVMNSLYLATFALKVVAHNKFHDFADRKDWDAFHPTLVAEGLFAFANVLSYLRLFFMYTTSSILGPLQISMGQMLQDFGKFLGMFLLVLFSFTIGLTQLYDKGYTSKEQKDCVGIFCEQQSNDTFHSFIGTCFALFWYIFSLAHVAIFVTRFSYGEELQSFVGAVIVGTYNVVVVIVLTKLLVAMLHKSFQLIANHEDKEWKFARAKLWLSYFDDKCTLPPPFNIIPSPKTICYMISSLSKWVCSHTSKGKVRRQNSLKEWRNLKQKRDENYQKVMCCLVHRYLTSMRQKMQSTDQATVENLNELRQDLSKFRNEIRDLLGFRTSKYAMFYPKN
Short transient receptor potential channel 1 (Mus musculus), sequence (Q61056 whole entry): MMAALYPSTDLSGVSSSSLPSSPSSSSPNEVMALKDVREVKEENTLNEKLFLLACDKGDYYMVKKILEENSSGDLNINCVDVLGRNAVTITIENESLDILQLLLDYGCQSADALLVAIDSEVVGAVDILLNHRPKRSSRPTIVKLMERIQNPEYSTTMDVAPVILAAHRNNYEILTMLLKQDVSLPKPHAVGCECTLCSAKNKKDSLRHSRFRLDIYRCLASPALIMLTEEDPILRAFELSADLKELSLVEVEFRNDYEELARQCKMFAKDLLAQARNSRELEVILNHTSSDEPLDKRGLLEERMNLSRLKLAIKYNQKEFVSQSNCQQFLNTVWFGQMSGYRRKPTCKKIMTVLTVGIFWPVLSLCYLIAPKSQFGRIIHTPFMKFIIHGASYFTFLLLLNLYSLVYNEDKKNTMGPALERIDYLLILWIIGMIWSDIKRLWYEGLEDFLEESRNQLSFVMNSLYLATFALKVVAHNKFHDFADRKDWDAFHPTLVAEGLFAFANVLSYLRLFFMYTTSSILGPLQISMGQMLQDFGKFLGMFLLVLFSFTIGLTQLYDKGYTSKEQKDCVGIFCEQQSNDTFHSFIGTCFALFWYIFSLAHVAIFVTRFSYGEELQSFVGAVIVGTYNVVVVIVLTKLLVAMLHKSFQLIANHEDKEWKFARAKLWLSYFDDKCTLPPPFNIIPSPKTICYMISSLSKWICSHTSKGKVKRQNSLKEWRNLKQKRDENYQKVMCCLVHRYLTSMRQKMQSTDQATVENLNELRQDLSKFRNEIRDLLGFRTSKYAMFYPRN

SMILES	inhibition [1] [%]	inhibition ([1]; filed as antagonist) [%]	also measured
O=C(c1cnn(-c2ccc(-n3ccc(Cl)c(Cl)c3=O)cc2)c1C(F)(F)F)N1CCCC1	–	> 80	–
CS(=O)(=O)c1cnn(-c2ccc(-n3ccc(Cl)c(Cl)c3=O)cc2)c1C(F)(F)F	< 80	–	–
CCN(CC)Cc1cnn(-c2ccc(-n3ccc(Cl)c(Cl)c3=O)cc2)c1C(F)(F)F	–	> 80	–
CCNC(=O)c1ncn(-c2ccc(-n3ccc(Cl)c(Cl)c3=O)cc2)c1C(F)(F)F	–	> 90	–
CCOC(=O)c1cnn(-c2ccc(NC(=O)C(Cl)=C(Cl)Cl)cc2)c1C(F)(F)F	–	> 80	Activity [2]: inactive; Activity [3]: inactive; Activity [4]: inactive; Activity [5]: inactive; Activity [6]: inactive
CCNC(=O)c1sc(-c2ccc(-n3ccc(Cl)c(Cl)c3=O)cc2)nc1C(F)(F)F	< 80	–	–
CCNC(=O)c1cnn(-c2ccc(-n3ccc(Cl)c(Cl)c3=O)cc2)c1Cl	< 80	–	–
CCNC(=O)c1cn(-c2ccc(-n3ccc(Cl)c(Cl)c3=O)cc2)nc1C(F)(F)F	–	> 97	–
CCNC(=O)c1cnn(-c2ccc(-n3ccc(Cl)c(Cl)c3=O)cc2)c1C#N	–	> 80	–
CCc1nnc(-c2cnn(-c3ccc(-n4ccc(Cl)c(Cl)c4=O)cc3)c2C(F)(F)F)o1	–	> 90	–
CCNC(=O)c1cnn(-c2ccc(-n3ccc(Cl)c(Cl)c3=O)cc2)c1	–	> 97	–
CCOCc1cnn(-c2ccc(-n3ccc(Cl)c(Cl)c3=O)cc2)c1C(F)(F)F	< 80	–	–
CCNC(=O)c1nn(-c2ccc(-n3ccc(Cl)c(Cl)c3=O)cc2)nc1C(F)(F)F	–	> 80	–
CCNC(=O)c1cnn(-c2ccc(-n3ccc(Cl)c(Cl)c3=O)cc2)c1S(C)(=O)=O	< 80	–	–

Continued, in another order:

inhibition [1] [%]	inhibition ([1]; filed as antagonist) [%]	SMILES	also measured
< 80	–	CCNC(=O)c1cnn(-c2ccc(-n3ccc(Cl)c(Br)c3=O)cc2)c1C(F)(F)F	–
< 80	–	CC(C)NC(=O)c1cnn(-c2ccc(-n3ccc(Cl)c(Cl)c3=O)cc2)c1C(F)(F)F	–
–	> 80	CC(=O)c1cnn(-c2ccc(-n3ccc(Cl)c(Cl)c3=O)cc2)c1C(F)(F)F	–
–	> 80	CNC(=O)c1cnn(-c2ccc(-n3ccc(Cl)c(Cl)c3=O)cc2)c1C(F)(F)F	–
< 80	–	O=C(NC1CC1)c1cnn(-c2ccc(-n3ccc(Cl)c(Cl)c3=O)cc2)c1C(F)(F)F	–
< 80	–	CCNC(=O)c1cnn(-c2ccc(-n3ccc(OC)c(Cl)c3=O)cc2)c1C(F)(F)F	–
–	> 80	CCNC(=O)c1cnn(-c2ccc(-n3ccc(Cl)c(Cl)c3=O)cc2)c1C(F)(F)F	Activity [7]: Active; Activity [2]: inactive; Activity [3]: inactive; solubility kinetic at 24 h [8]: 144 µM (≈ 64.1 µg/mL); Activity [9]: Non-toxic; Activity [4]: inactive; Activity [5]: inactive; Activity [6]: inactive
< 80	–	CCCCNC(=O)c1cnn(-c2ccc(-n3ccc(Cl)c(Cl)c3=O)cc2)c1C(F)(F)F	–
–	> 80	CCNC(=O)c1cnn(-c2ccc(-n3ccc(C(F)(F)F)c(Cl)c3=O)cc2)c1C(F)(F)F	–
< 80	–	CCNC(=O)c1cnn(-c2ccc(-n3ccc(Cl)c(Cl)c3=O)cn2)c1C(F)(F)F	–
–	> 90	CCN(CC)C(=O)c1cnn(-c2ccc(-n3ccc(Cl)c(Cl)c3=O)cc2)c1C(F)(F)F	–
< 80	–	CCNC(=O)c1nnn(-c2ccc(-n3ccc(Cl)c(Cl)c3=O)cc2)c1C(F)(F)F	–
–	> 80	CCC(=O)Nc1cnn(-c2ccc(-n3ccc(Cl)c(Cl)c3=O)cc2)c1C(F)(F)F	–
< 80	–	CCCNC(=O)c1cnn(-c2ccc(-n3ccc(Cl)c(Cl)c3=O)cc2)c1C(F)(F)F	–
–	> 90	CC(C)CNC(=O)c1cnn(-c2ccc(-n3ccc(Cl)c(Cl)c3=O)cc2)c1C(F)(F)F	–
< 80	–	NC(=O)c1cnn(-c2ccc(-n3ccc(Cl)c(Cl)c3=O)cc2)c1C(F)(F)F	–
–	> 90	CCNC(=O)c1cnn(-c2ccc(-n3ccc(O)c(Cl)c3=O)cc2)c1C(F)(F)F	–
< 80	–	CCCC(=O)c1cnn(-c2ccc(-n3ccc(Cl)c(Cl)c3=O)cc2)c1C(F)(F)F	–
